# Results from ChEMBL document CHEMBL1122521, “Nucleic acid related compounds. 47. Synthesis and biological activities of pyrimidine and purine "acyclic" nucleoside analogues” (J Med Chem, 1984).
# How the values were obtained:
# Assay type in all cases: functional
# Human alphaherpesvirus 2 = assay: Concentration required to reduce cytopathogenicity of Herpes simplex virus type 2 (strain G) by 50% in primary rabbit kidney (PRK) cells
# Human alphaherpesvirus 1 = assay: Concentration required to reduce cytopathogenicity of Herpes simplex virus type 1 (strain KOS) by 50% in primary rabbit kidney (PRK) cells
# L1210 [1] = assay: Inhibitory concentration required to reduce [3H-methyl]-dThd C incorporation into cellular DNA by 50% in Murine Leukemia L1210 cells; conditions: Mus musculus, read-out: ID50 (the source's name)
# L1210 [2] = assay: Inhibitory concentration required to reduce [3H1',2']dUrd incorporation into cellular DNA by 50% in Murine Leukemia L1210 cells; conditions: Mus musculus, read-out: ID50 (the source's name)
# L1210 [3] = assay: Inhibitory concentration required to reduce cell growth of Murine Leukemia L1210 cells; conditions: Mus musculus, read-out: ID50 (the source's name)
# [4] = Inhibitory concentration required to reduce incorporation of 2-deoxythymidine (dThd) into DNA of Primary Rabbit kidney (PRK) cell cultures; conditions: Oryctolagus cuniculus, read-out: ID50 (the source's name)
# [5] = Inhibitory concentration required to reduce incorporation of 2-deoxyuridine (dUrd) into DNA of Primary Rabbit kidney (PRK) cell cultures; conditions: Oryctolagus cuniculus, read-out: ID50 (the source's name)
# [6] = Ratio of ID50 for dThd or dUrd incorporation to ID50 for HSV-1, HSV-2 or VV(whatever was lowest)
# [7] = Inhibitory concentration required to reduce 2-deoxyuridine ([3H-1'2']dUrd) incorporation into DNA of Primary Rabbit kidney (PRK) cell cultures; conditions: Oryctolagus cuniculus, read-out: ID50 (the source's name)
# [8] = system: Vesicular stomatitis virus; assay: Concentration required to reduce cytopathogenicity of Vesicular stomatitis virus by 50% in primary rabbit kidney (PRK) cells
# L1210 [9] = assay: Inhibitory concentration required to reduce [3H1',2']dUrd incorporation into cellular DNA by 50 %; conditions: Mus musculus, read-out: ID50 (the source's name)
structure (smiles),measurement,setting,value
Nc1nc(=O)ccn1COCCO,ID50,Human alphaherpesvirus 2,>400 µg/mL
same,ID50,Human alphaherpesvirus 1,>400 µg/mL
same,IC50,L1210 [1],> 500 µg/mL
same,IC50,L1210 [2],> 500 µg/mL
same,IC50,L1210 [3],> 500 µg/mL
same,IC50,[4],> 400 µg/mL
same,IC50,[5],> 400 µg/mL
CN(C)c1ncnc2c1ncn2COCCO,ID50,Human alphaherpesvirus 2,>400 µg/mL
same,ID50,Human alphaherpesvirus 1,>400 µg/mL
same,IC50,L1210 [1],> 500 µg/mL
same,IC50,L1210 [2],> 500 µg/mL
same,IC50,L1210 [3],> 500 µg/mL
same,IC50,[4],400 µg/mL
same,IC50,[5],> 350 µg/mL
same,Antiviral index,[6],< 0.9
Cc1cn(COCCO)c(=O)[nH]c1=O,ID50,Human alphaherpesvirus 2,>400 µg/mL
same,ID50,Human alphaherpesvirus 1,>400 µg/mL
same,IC50,L1210 [1],> 1000 µg/mL
same,IC50,L1210 [2],> 1000 µg/mL
same,IC50,L1210 [3],> 1000 µg/mL
same,IC50,[4],> 400 µg/mL
same,IC50,[5],> 400 µg/mL
CC(=O)OCCOCn1cnc2c(Cl)nc(N)nc21,ID50,Human alphaherpesvirus 2,20 µg/mL
same,ID50,Human alphaherpesvirus 1,20 µg/mL
same,IC50,L1210 [1],> 1000 µg/mL
same,IC50,L1210 [2],> 1000 µg/mL
same,IC50,L1210 [3],91 µg/mL
same,IC50,[7],71 µg/mL
same,IC50,[4],55 µg/mL
same,ID50,[8],>400 µg/mL
same,Antiviral index,[6],2.7
Nc1nc2c(nc(Cl)n2COCCO)c(=O)[nH]1,ID50,Human alphaherpesvirus 2,>400 µg/mL
same,ID50,Human alphaherpesvirus 1,70 µg/mL
same,IC50,L1210 [1],> 1000 µg/mL
same,IC50,L1210 [2],> 1000 µg/mL
same,IC50,L1210 [3],350 µg/mL
same,IC50,[7],> 400 µg/mL
same,IC50,[4],> 400 µg/mL
same,Antiviral index,[6],> 6
O=c1[nH]c(=O)n(COCCO)cc1/C=C/Br,ID50,Human alphaherpesvirus 2,>400 µg/mL
same,ID50,Human alphaherpesvirus 1,>400 µg/mL
same,IC50,L1210 [1],> 1000 µg/mL
same,IC50,L1210 [2],> 1000 µg/mL
same,IC50,L1210 [3],> 1000 µg/mL
same,IC50,[4],> 200 µg/mL
same,IC50,[5],> 400 µg/mL
CC(=O)OCCOCn1cnc2c(Cl)ncnc21,ID50,Human alphaherpesvirus 2,70 µg/mL
same,ID50,Human alphaherpesvirus 1,70 µg/mL
same,IC50,L1210 [1],475 µg/mL
same,IC50,L1210 [2],233 µg/mL
same,IC50,L1210 [3],44 µg/mL
same,IC50,[4],60 µg/mL
same,IC50,[5],62 µg/mL
same,ID50,[8],>400 µg/mL
same,Antiviral index,[6],3
CC(=O)OCCOCn1cnc2c(Cl)nc(Cl)nc21,ID50,Human alphaherpesvirus 2,>10 µg/mL
same,ID50,Human alphaherpesvirus 1,2 µg/mL
same,IC50,L1210 [1],412 µg/mL
same,IC50,L1210 [2],98 µg/mL
same,IC50,L1210 [3],12 µg/mL
same,IC50,[4],10 µg/mL
same,IC50,[5],2 µg/mL
same,Antiviral index,[6],1
O=c1[nH]c(=O)n(COCCO)cc1I,ID50,Human alphaherpesvirus 2,>400 µg/mL
same,ID50,Human alphaherpesvirus 1,>400 µg/mL
same,IC50,L1210 [1],> 1000 µg/mL
same,IC50,L1210 [2],> 1000 µg/mL
same,IC50,L1210 [3],> 1000 µg/mL
same,IC50,[4],> 400 µg/mL
same,IC50,[5],> 400 µg/mL
Cc1nc2c(O)nc(N)nc2n1COCCO,ID50,Human alphaherpesvirus 2,0.5 µg/mL
same,ID50,Human alphaherpesvirus 1,0.5 µg/mL
same,IC50,L1210 [1],> 500 µg/mL
same,IC50,L1210 [2],> 500 µg/mL
same,IC50,L1210 [3],323 µg/mL
same,IC50,[4],> 400 µg/mL
same,IC50,[5],> 400 µg/mL
same,ID50,[8],>400 µg/mL
same,Antiviral index,[6],> 800
O=c1[nH]c(=O)n(COCCO)cc1[N+](=O)[O-],ID50,Human alphaherpesvirus 2,>400 µg/mL
same,ID50,Human alphaherpesvirus 1,>400 µg/mL
same,IC50,L1210 [1],> 1000 µg/mL
same,IC50,L1210 [2],> 1000 µg/mL
same,IC50,L1210 [3],447 µg/mL
same,IC50,[4],> 400 µg/mL
same,IC50,[5],> 400 µg/mL
O=c1ccn(COCCO)c(=O)[nH]1,ID50,Human alphaherpesvirus 2,>400 µg/mL
same,ID50,Human alphaherpesvirus 1,>400 µg/mL
same,IC50,L1210 [1],> 1000 µg/mL
same,IC50,L1210 [2],> 1000 µg/mL
same,IC50,L1210 [3],> 1000 µg/mL
same,IC50,[4],> 400 µg/mL
same,IC50,[5],> 400 µg/mL
CNc1nc2c(=O)[nH]c(N)nc2n1COCCO,ID50,Human alphaherpesvirus 2,3 µg/mL
same,ID50,Human alphaherpesvirus 1,7 µg/mL
same,IC50,L1210 [1],> 500 µg/mL
same,IC50,L1210 [9],> 500 µg/mL
same,IC50,L1210 [3],> 500 µg/mL
same,IC50,[4],> 400 µg/mL
same,IC50,[5],> 400 µg/mL
same,ID50,[8],>400 µg/mL
same,Antiviral index,[6],133
Nc1nc2c(nc(N)n2COCCO)c(=O)[nH]1,ID50,Human alphaherpesvirus 2,0.3 µg/mL
same,ID50,Human alphaherpesvirus 1,0.7 µg/mL
same,IC50,L1210 [1],500 µg/mL
same,IC50,L1210 [9],500 µg/mL
same,IC50,L1210 [3],> 500 µg/mL
same,IC50,[4],290 µg/mL
same,IC50,[5],200 µg/mL
same,ID50,[8],>100 µg/mL
same,Antiviral index,[6],667
OCCOCn1cnc2c(O)ncnc21,ID50,Human alphaherpesvirus 2,>400 µg/mL
same,ID50,Human alphaherpesvirus 1,>400 µg/mL
same,IC50,L1210 [1],> 1000 µg/mL
same,IC50,L1210 [2],> 1000 µg/mL
same,IC50,L1210 [3],> 1000 µg/mL
same,IC50,[7],> 100 µg/mL
same,IC50,[4],> 100 µg/mL
O=c1[nH]c(=O)n([C@H]2C[C@H](O)[C@@H](CO)O2)cc1/C=C/Br [BRIVUDINE],ID50,Human alphaherpesvirus 2,2 µg/mL
same,ID50,Human alphaherpesvirus 1,0.007 µg/mL
same,IC50,[4],73 µg/mL
same,IC50,[5],27 µg/mL
same,ID50,[8],>400 µg/mL
same,Antiviral index,[6],3860
O=c1cc(O)ccn1COCCO,ID50,Human alphaherpesvirus 2,>400 µg/mL
same,ID50,Human alphaherpesvirus 1,>400 µg/mL
same,IC50,L1210 [1],> 1000 µg/mL
same,IC50,L1210 [2],> 1000 µg/mL
same,IC50,L1210 [3],> 1000 µg/mL
same,IC50,[4],> 400 µg/mL
same,IC50,[5],> 400 µg/mL
